Measured values from patent US4786755A, “Diphenic acid monoamides” (Warner-Lambert Company, priority 1986, dated 1988).

Columns and labels:
[1] = target: T1, human leukocyte 5-lipoxygenase (Homo sapiens, UniProt P09917); experiment: 5-Lipoxygenase Inhibitor in Human Leukocytes (5LOA1); type: cell-based; conditions: 100 μM exogenous arachidonic acid; read-out: IC50 5LOA (100)*
T1 construct: endogenous in cells; host or cells: leukocytes from fresh blood of normal adult men
T1 sequence (P09917 1-674): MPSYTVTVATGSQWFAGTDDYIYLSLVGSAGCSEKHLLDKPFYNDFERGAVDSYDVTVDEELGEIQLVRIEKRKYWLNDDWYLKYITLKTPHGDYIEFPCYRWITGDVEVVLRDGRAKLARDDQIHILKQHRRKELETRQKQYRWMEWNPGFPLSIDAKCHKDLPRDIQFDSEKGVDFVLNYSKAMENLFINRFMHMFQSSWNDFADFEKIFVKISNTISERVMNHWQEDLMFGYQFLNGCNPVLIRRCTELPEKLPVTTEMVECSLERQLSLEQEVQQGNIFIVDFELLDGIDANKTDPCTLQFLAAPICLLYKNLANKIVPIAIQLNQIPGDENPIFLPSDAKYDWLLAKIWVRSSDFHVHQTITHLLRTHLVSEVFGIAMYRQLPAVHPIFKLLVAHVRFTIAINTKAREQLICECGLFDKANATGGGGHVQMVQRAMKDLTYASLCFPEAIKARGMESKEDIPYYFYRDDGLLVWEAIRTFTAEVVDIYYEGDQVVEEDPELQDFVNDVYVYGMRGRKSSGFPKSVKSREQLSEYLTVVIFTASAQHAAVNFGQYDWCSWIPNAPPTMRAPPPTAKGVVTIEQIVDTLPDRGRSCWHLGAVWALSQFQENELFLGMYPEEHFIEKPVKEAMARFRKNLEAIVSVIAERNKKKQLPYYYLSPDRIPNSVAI
Source text: To Evaluate the Effect of Each Compounds as a 5-Lipoxygenase Inhibitor in Comparison to Standard Reference Agents in Human Leukocytes (5LOA1)
The purpose of this assay is to evaluate the activity of each compound as an inhibitor of human leukocyte 5-lipoxygenase.
Arachidonic acid and calcium ionophore A23187 are obtained from Sigma (St. Louis, MO). Silica gel plates, GF are obtained from Analtech (Newark, DE). Arachidonic acid, (1-^14 C) and 5-HETE (^3 H), 5 (S)-hydroxy-6-trans,8,11,14-cis eicosatetraenoic acid, are obtained from New England Nuclear (Boston, MA). Six percent Dextran-70 in 0.9% NaCl is obtained from Cutter Labs (Berkeley, CA).
Preparation of Leukocytes
Fresh blood from normal adult men who had not received any drugs for at least the previous five days is obtained by the Community Research Clinic (WL/PD) using venipuncture and collected into heparinized vacuotainer tubes. To every 100 ml of pooled blood is added 25 ml of dextran solution (6% dextran -70 in 0.9% sodium chloride containing 3% dextrose) and this is mixed gently in a plastic cylinder. The mixture is left to stand at room temperature for at least 90 minutes. The upper layer which is rich in leukocytes and platelets is then carefully decanted into 50 ml plastic tubes and centrifuged at about 100×g for eight minutes in an IEC centrifuge and rotor number 269 (about 600 rpm). The supernatant fluid is discarded and the pellet is resuspended in 10 ml of 0.87% ammonium chloride for exactly two minutes. This procedure is to lyse completely contaminating red blood cells. Leukocytes are then separated by centrifugation for ten minutes. The pellet is washed three times by suspension in 20 ml PBS (sodium chloride, 7.1 g; Na2 HPO4, 1.15 g; KH2 PO4, 0.2 g, and KCl, 0.2 g/L) and centrifuged as before. The final pellet is suspended in PBS containing 0.87 mM CaCl2. Viability of the cells is then checked using trypan blue exclusion method and is found to be over 90%.
5-Lipoxygenase Enzyme Assay
Cells in suspension (0.98 ml) are incubated with or without test compounds for five minutes at 37° C. in a shaking water bath. At this time a 17 μl mixture is prepared per 1 ml of cell suspension: 100 mM arachidonic acid, 1 μl, 0.05 μCi ^14 C-arachidonic acid in 5 μl; 1 mM calcium ionophore A23187, 10 μl (1). This mixture is added and the incubation continued for five minutes. The reaction is stopped by adding four volumes of absolute ethanol and the mixture is kept in ice for 30 minutes. The floculated precipitate is separated by centrifugation at about 37,000×g for 20 minutes (Beckman Instruments rotor number 40). The alcohol extract is taken to dryness under a stream of nitrogen and the residue is dissolved in 100-200 μl absolute ethanol. At the time any turbidity is removed by centrifugation. An aliquot (25-50 μl) is applied onto 20×20 cm silica gel TLC plate and developed using the following solvent system: diethyl ether, petroleum ether (20°-40° C.), acetic acid (50:50:1 v/v). Zones of 1 cm apart are scraped from the TLC plate and transferred to mini-vials. Methanol (0.5 ml) is added to dissolve the radioactivity adsorbed to the silica gel and scintillation fluid (H.P., Beckman), 5 ml is then added and vials are counted in a liquid scintillation counter. A sample of ^3 H-5-HETE is applied and used for the identification of the formed 5-HETE.
Total radioactivity in the test as well as the control samples are normalized and the amount of 5-HETE present is calculated accordingly.
IC50 values are defined as the concentrations of test agents which caused a 50% inhibition of the formation of 5-HETE as compared to control and are determined by inspection of the concentration-response curves.

[2] = tested on: Isolated Guinea Pig Lung Parenchyma; experiment: Smooth Muscle Receptor Agonism-Antagonism Activity Evaluations In Vitro (IVAS), LTC4-induced contraction; type: cell-based; conditions: Cavia porcellus, LTC4-induced contraction
Source text: Smooth Muscle Receptor Agonism-Antagonism Activity Evaluations In Vitro (IVAS) Isolated Guinea Pig Lung Parenchyma
The potency of a test compound for receptor stimulation or antagonism, for example, can easily be determined since the concentration of the compound to which the muscle cell, or specialized responsive area on this cell, is exposed can be easily controlled and correlated with the recorded activity of muscle contraction or relaxation.
The procedures described herein are specifically concerned with the definition of a test drug action on isolated lung strips. Drug action is characterized either by an action per se on the tissues or by interaction with known smooth muscle receptor stimulants or antagonists.
Usually, the tests will be used to evaluate the ability of a test compound to antagonize the contraction induced by standard agonists in this case LTC4. A relative potency is derived by comparison with one of the standard blocking drugs. In caution, relative potencies of test compounds to known standards are valid only if full dose response curves are generated and the compound compared generate parallel dose/response curves with common maxima. Appropriate "within-trial" comparisons are also necessary.
Molecular antagonists compete with the agonist for the receptor. […] A physiological antagonist produces a response by action on a different receptor that causes an effect in opposition to the agonism.
A permanent isolated bath system is used which facilitates the vertical suspension of a segment of tissue in a small volume of a specific nutritive buffer. Frittered glass terminals provide dispersed bubbles of 95% oxygen and 5% carbon dioxide at the base of the individual tissue baths and the buffer reservoir. All baths and the reservoir are double-jacketed and water at 37° C. is circulated through the jacket of the baths to provide stable temperature regulation. The baths are arranged so that fresh solution from the reservoir passes through a jacketed glass coil to the base of the bath. The bubbling gas stirs the bath solution. During equilibration, fresh solution enters and excess solution is allowed to overflow. Unless a particular drug is required throughout the experiment and it is incorporated in the buffer, individual drugs are introduced directly into the bath by long hypodermic needles to the base of the bath without disturbing the tissue. Drugs are removed by rapidly draining the tissue bath from the bottom and refilling. Tissues are washed a minimum of six times. The emptying and refilling sequence takes only five seconds.
The contraction and relaxation of the smooth muscle preparation can be recorded either isotonically (change in length) or isometrically (change in tension). Isometric transducers are more sensitive and proportional. Isometric contractions are recorded electronically using Grass FT 0.03C force displacement transducers and Beckman Dynagraph recorders. The tissue is suspended vertically with one end of the segment anchored to the bottom of the bath and the other end attached to the mechanical electrical transducer muscle level. The electrical output of this transducer moves a pen on a moving chart in proportion to the force displacement.
Lung tissue is obtained from normal male guinea pigs. The heart and lungs are removed as a unit, placed in buffer, and the lungs are perfused with buffer by the spontaneously beating heart for several minutes.

SMILES | IC50 [1] [µM] | inhibition at 3 µM ([2]; @ 3 μM) [%] | IC50 [2] [µM]
O=C(O)c1ccccc1-c1ccccc1C(=O)Nc1ccc(CCCc2ccc(Cl)c(Cl)c2)cc1 [Example 1, [1,1'-Biphenyl]-2-carboxylic acid, 2'-[[[4-[3-(3,4-dichlorophenyl)propyl]phenyl]amino]carbonyl]-] | 9.6 | 90 | –
O=C(O)c1ccccc1-c1ccccc1C(=O)Nc1ccc(CCc2ccc(Cl)c(Cl)c2)cc1 [Example 3, [1,1'-Biphenyl]-2-carboxylic acid, 2'-[[[4-[2-(3,4-dichlorophenyl)ethyl]phenyl]amino]carbonyl]-] | 4.6 | – | 1
O=C(O)c1ccccc1-c1ccccc1C(=O)Nc1cccc(CCc2ccc(Cl)c(Cl)c2)c1 [Example 4, [1,1'-Biphenyl]-2-carboxylic acid, 2'-[[[3-[2-(3,4-dichlorophenyl)ethyl]phenyl]amino]carbonyl]-] | 9.3 | – | –
CN(C(=O)c1ccccc1-c1ccccc1C(=O)O)c1ccc(CCc2ccc(Cl)c(Cl)c2)cc1 [Example 5, [1,1'-Biphenyl]-2-carboxylic acid, 2'-[[[4-[2-(3,4-dichlorophenyl)ethyl]phenyl]methylamino]carbonyl]-] | 40 | – | –
COc1ccc(CCc2ccc(NC(=O)c3ccccc3-c3ccccc3C(=O)O)cc2)cc1OC [Example 7, [1,1'-Biphenyl]-2-carboxylic acid, 2'-[[[4-[2-(3,4-dimethoxyphenyl)ethyl]phenyl]amino]carbonyl]-] | > 20 | – | –
CN(C(=O)c1ccccc1-c1ccccc1C(=O)O)c1ccc(CCc2ccc(Cl)cc2)cc1 [Example 8] | > 20 | – | –
O=C(O)c1ccccc1-c1ccccc1C(=O)Nc1ccc(CCc2ccc(Cl)cc2)cc1 [Example 11, [1,1'-Biphenyl]-2-carboxylic acid, 2'-[[4-[2-[(4-chlorophenyl)ethyl]phenyl]amino]carbonyl]-] | 12 | – | –
